Source: PubChem BioAssay AID180 (DTP/NCI, 2004)
“And” between values parts separate entries of the source, which are not always exact repeats. Identical values can stand only once.

Test system: BDF1 mice, Adenocarcinoma 755 s.c., tumor weight T/C
Assay: NCI In Vivo Anticancer Drug Screen. Data for tumor model Adenocarcinoma 755 (subcutaneous) in B6D2F1 (BDF1) mice
Conditions: endpoint: mean tumor weight, higher = larger tumour
Method in brief: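 Values express treated (T) relative to vehicle-dosed control (C) animals, based on survival or tumour size measured after compound treatment of mice bearing a transplanted tumour.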

## Nc1c(Br)cc2c(c1Br)Cc1cc(Br)ccc1-2
dose: 3.75 mg/kg/injection, schedule: Q#A X022 (ip), vehicle: saline
  T/C: 77 % of control
dose: 7.5 mg/kg/injection, schedule: Q#A X022 (ip), vehicle: saline
  T/C: 50 % of control
dose: 15.0 mg/kg/injection, schedule: Q01DX011 (im), vehicle: saline
  T/C: 46 % of control
dose: 15.0 mg/kg/injection, schedule: Q01DX011 (sc), vehicle: saline
  T/C: 58 % of control
dose: 15.0 mg/kg/injection, schedule: Q#A X022 (ip), vehicle: saline
  T/C: 40 % of control
dose: 15.5 mg/kg/injection, schedule: Q01DX011 (ip), vehicle: saline
  T/C: 74 % of control
dose: 21.8 mg/kg/injection, schedule: Q01DX011 (ip), vehicle: saline
  T/C: 59 % of control and 69 % of control
dose: 30.0 mg/kg/injection, schedule: Q01DX011 (im), vehicle: saline
  T/C: 48 % of control
dose: 30.0 mg/kg/injection, schedule: Q01DX011 (sc), vehicle: saline
  T/C: 52 % of control
dose: 30.0 mg/kg/injection, schedule: Q#A X022 (ip), vehicle: saline
  T/C: 40 % of control
dose: 31.2 mg/kg/injection, schedule: Q01DX011 (ip), vehicle: saline
  T/C: 75 % of control
dose: 43.7 mg/kg/injection, schedule: Q01DX011 (ip), vehicle: saline
  T/C: 18 % of control and 36 % of control
dose: 45.0 mg/kg/injection, schedule: Q03DX004 (ip), vehicle: saline
  T/C: 67 % of control
dose: 60.0 mg/kg/injection, schedule: Q01DX011 (im), vehicle: saline
  T/C: 40 % of control
dose: 60.0 mg/kg/injection, schedule: Q01DX011 (ip), vehicle: saline
  T/C: 24 % of control
dose: 60.0 mg/kg/injection, schedule: Q01DX011 (sc), vehicle: saline
  T/C: 41 % of control
dose: 60.0 mg/kg/injection, schedule: Q#A X022 (ip), vehicle: saline
  T/C: 28 % of control
dose: 62.5 mg/kg/injection, schedule: Q01DX011 (ip), vehicle: saline
  T/C: 63 % of control
dose: 87.5 mg/kg/injection, schedule: Q01DX011 (ip), vehicle: saline
  T/C: 33 % of control and 35 % of control
dose: 90.0 mg/kg/injection, schedule: Q03DX004 (ip), vehicle: saline
  T/C: 66 % of control
dose: 100.0 mg/kg/injection, schedule: Q01DX001 (ip), vehicle: saline
  T/C: 80 % of control and 87 % of control
dose: 100.0 mg/kg/injection, schedule: Q07DX002 (ip), vehicle: saline
  T/C: 78 % of control
dose: 120.0 mg/kg/injection, schedule: Q01DX001 (ip), vehicle: saline
  T/C: 56 % of control
dose: 120.0 mg/kg/injection, schedule: Q01DX011 (im), vehicle: saline
  T/C: 45 % of control
dose: 120.0 mg/kg/injection, schedule: Q01DX011 (ip), vehicle: saline
  T/C: 17 % of control
dose: 120.0 mg/kg/injection, schedule: Q01DX011 (oral), vehicle: saline
  T/C: 26 % of control
dose: 120.0 mg/kg/injection, schedule: Q01DX011 (sc), vehicle: saline
  T/C: 46 % of control
dose: 120.0 mg/kg/injection, schedule: Q#A X022 (ip), vehicle: saline
  T/C: 34 % of control
dose: 125.0 mg/kg/injection, schedule: Q01DX011 (ip), vehicle: saline
  T/C: 36 % of control
dose: 125.0 mg/kg/injection, schedule: Q01DX011 (oral), vehicle: saline
  T/C: 74 % of control
dose: 175.0 mg/kg/injection, schedule: Q01DX011 (ip), vehicle: other
  T/C: 33 % of control
dose: 175.0 mg/kg/injection, schedule: Q01DX011 (ip), vehicle: saline
  T/C: 27 % of control and 33 % of control
dose: 180.0 mg/kg/injection, schedule: Q03DX004 (ip), vehicle: saline
  T/C: 58 % of control
dose: 200.0 mg/kg/injection, schedule: Q01DX001 (ip), vehicle: saline
  T/C: 74 % of control and 75 % of control
dose: 200.0 mg/kg/injection, schedule: Q07DX002 (ip), vehicle: saline
  T/C: 71 % of control
dose: 240.0 mg/kg/injection, schedule: Q01DX001 (ip), vehicle: saline
  T/C: 44 % of control
dose: 240.0 mg/kg/injection, schedule: Q01DX011 (ip), vehicle: saline
  T/C: 16 % of control
dose: 240.0 mg/kg/injection, schedule: Q01DX011 (oral), vehicle: saline
  T/C: 23 % of control
dose: 250.0 mg/kg/injection, schedule: Q01DX011 (ip), vehicle: saline
  T/C: 52 % of control
dose: 250.0 mg/kg/injection, schedule: Q01DX011 (oral), vehicle: saline
  T/C: 64 % of control
dose: 350.0 mg/kg/injection, schedule: Q01DX011 (ip), vehicle: other
  T/C: 16 % of control
dose: 360.0 mg/kg/injection, schedule: Q03DX004 (ip), vehicle: saline
  T/C: 54 % of control
dose: 400.0 mg/kg/injection, schedule: Q01DX001 (ip), vehicle: saline
  T/C: 54 % of control and 65 % of control
dose: 400.0 mg/kg/injection, schedule: Q07DX002 (ip), vehicle: saline
  T/C: 51 % of control
dose: 480.0 mg/kg/injection, schedule: Q01DX001 (ip), vehicle: saline
  T/C: 26 % of control
dose: 480.0 mg/kg/injection, schedule: Q01DX011 (im), vehicle: saline
  T/C: 33 % of control
dose: 480.0 mg/kg/injection, schedule: Q01DX011 (ip), vehicle: saline
  T/C: 16 % of control
dose: 480.0 mg/kg/injection, schedule: Q01DX011 (oral), vehicle: saline
  T/C: 24 % of control
dose: 480.0 mg/kg/injection, schedule: Q01DX011 (sc), vehicle: saline
  T/C: 30 % of control
dose: 500.0 mg/kg/injection, schedule: Q01DX011 (ip), vehicle: saline
  T/C: 58 % of control
dose: 500.0 mg/kg/injection, schedule: Q01DX011 (oral), vehicle: saline
  T/C: 57 % of control
dose: 700.0 mg/kg/injection, schedule: Q01DX011 (ip), vehicle: other
  T/C: 34 % of control
dose: 720.0 mg/kg/injection, schedule: Q03DX004 (ip), vehicle: saline
  T/C: 24 % of control
dose: 800.0 mg/kg/injection, schedule: Q01DX001 (ip), vehicle: saline
  T/C: 60 % of control and 80 % of control
dose: 800.0 mg/kg/injection, schedule: Q07DX002 (ip), vehicle: saline
  T/C: 51 % of control
dose: 960.0 mg/kg/injection, schedule: Q01DX001 (ip), vehicle: saline
  T/C: 31 % of control
dose: 960.0 mg/kg/injection, schedule: Q01DX011 (im), vehicle: saline
  T/C: 29 % of control
dose: 960.0 mg/kg/injection, schedule: Q01DX011 (oral), vehicle: saline
  T/C: 25 % of control
dose: 960.0 mg/kg/injection, schedule: Q01DX011 (sc), vehicle: saline
  T/C: 25 % of control
dose: 1000.0 mg/kg/injection, schedule: Q01DX011 (ip), vehicle: saline
  T/C: 47 % of control
dose: 1000.0 mg/kg/injection, schedule: Q01DX011 (oral), vehicle: saline
  T/C: 43 % of control
dose: 1440.0 mg/kg/injection, schedule: Q03DX004 (ip), vehicle: saline
  T/C: 29 % of control
dose: 2000.0 mg/kg/injection, schedule: Q01DX011 (ip), vehicle: saline
  T/C: 40 % of control
dose: 2000.0 mg/kg/injection, schedule: Q01DX011 (oral), vehicle: saline
  T/C: 36 % of control
dose: 3000.0 mg/kg/injection, schedule: Q01DX011 (oral), vehicle: saline
  T/C: 56 % of control
